Reference: patent publication US6001997A, “Cephalosporins and homologues, preparations and pharmaceutical compositions” (priority 1990, dated 1999)
Values after ≈ are worked out from the molar mass of the structure shown. Where a name gives a salt, the structure may show the parent alone. Read-outs that look alike come from different tables or passages of the source.

Tests used:
[1] = tested on: E. coli (NCTC 1048); experiment: MIC values (minimum inhibitory concentration) against a sample E.coli organism; type: cell-based
Description: (§1) The following Examples illustrate the preparation of compounds of the invention and intermediates thereto.

[2] = tested on: S. aureus (Oxford); experiment: MIC values (minimum inhibitory concentration) against a sample S.aureus organism; type: cell-based; details: in vitro
Description: as §1

[3] = Staphylococcus aureus, read-out: MIC
[4] = Escherichia coli, NCTC1048, in vitro, E. coli (NCTC 1048), read-out: MIC

Molecule | MIC ([1]; Escherichia coli, NCTC1048) [µg/mL] | MIC [2, 3] [µg/mL] | MIC ([1]; in vitro, E. coli (NCTC 1048)) [µg/mL] | MIC [2] [µg/mL] | MIC [1, 4] [µg/mL]
CO/N=C(\C(=O)N[C@@H]1C(=O)N2C(C(=O)[O-])=C(C3CCCCO3)CS[C@H]12)c1csc(N)n1.[Na+] (mixture of isomers) [Example 3, Sodium (6R,7R)-7-[2-(2-Aminothiazol-4-yl)-2-(Z)-methoxyiminoacetamido]-3-[(RS) -tetrahydropyran-2-yl]-ceph-3-em-4-carboxylate] | 2 | 1 |  |  | 
CO/N=C(\C(=O)N[C@@H]1C(=O)N2C(C(=O)[O-])=C(C3CC[C@@H](C)O3)CS[C@H]12)c1csc(N)n1.[Na+] (mixture of isomers) [Example 27, Sodium (6R,7R)-7-12-(2-aminothiazol-4-yl)-2-(Z)-methoxy-iminoacetamidol-3-[(5R,2SR)-5-methyltetrahydrofuran-2-yl]ceph-3-em-4-carboxylate] |  |  | 4.00 | 1.00 | 
CO/N=C(\C(=O)N[C@@H]1C(=O)N2C(C(=O)O)=C(C3CCCO3)CS[C@H]12)c1csc(N)n1 (stereo partly drawn) [Example 1, Sodium (6R,7R)-7-[2-(2-Aminothiazol-4-yl)-2-(Z)-methoxy-iminoacetamido]-3-[(RS)-tetrahydrofuran-2-yl]ceph-3-em-4-carboxylate] |  | 1 |  |  | 0.5
Nc1nc(/C(=N/O)C(=O)N[C@@H]2C(=O)N3C(C(=O)O)=C(C4CCCO4)CS[C@H]23)cs1 (stereo partly drawn) [Example 5, (6R,7R)-7-[2-(2-Aminothiazol-4-yl)-2-(Z)-hydroxyiminoacet-amido]-3-[(RS)-tetrahydrofuran-2-yl]ceph-3-em-4-carboxylic acid] |  | 0.25 (≈ 0.569 µM) |  |  | 0.5 (≈ 1.14 µM)
CO/N=C(\C(=O)N[C@@H]1C(=O)N2C(C(=O)O)=C([C@@H]3CCCO3)CS[C@H]12)c1csc(N)n1 [Example 7, Sodium (6R,7R)-7-[2-(2-aminothiazol-4-yl)-2-(Z)-methoxy-iminoacetamido]-3-[(S)-tetrahydrofuran-2-yl]ceph-3-em-4-carboxylate] |  | 1 |  |  | 0.5
CO/N=C(\C(=O)N[C@@H]1C(=O)N2C(C(=O)O)=C([C@H]3CCCO3)CS[C@H]12)c1csc(N)n1 [Example 9, sodium (6R,7R)-7-[2-(2-aminothiazol-4-yl)-2-(Z)-methoxy-iminoacetamido]-3-[(R)-tetrahydrofuran-2-yl]ceph-3-em-4-carboxylate] |  | 0.5 |  |  | 1
CO/N=C(\C(=O)N[C@@H]1C(=O)N2C(C(=O)O)=C(C3CCOC3)CS[C@H]12)c1csc(N)n1 (some centres unmarked) [Example 13] |  | 4 (≈ 8.82 µM) |  |  | 1 (≈ 2.21 µM)
COC[C@@H]1CCC(C2=C(C(=O)O)N3C(=O)[C@@H](NC(=O)/C(=N\OC)c4csc(N)n4)[C@H]3SC2)O1 (stereo partly drawn) [Example 17, sodium (6R,7R)-7-[2-(2-aminothiazol-4-yl)-2-(Z)-methoxyiminoacetamido]-3-(5-methoxymethyltetrahydrofuran-2-yl)ceph-3-em-4-carboxylate] |  | 2 |  |  | 1
CC/C=C(\C(=O)N[C@@H]1C(=O)N2C(C(=O)O)=C([C@@H]3CCCO3)CS[C@H]12)c1csc(N)n1 [Example 18, sodium (6R,7R)-7-[2-(2-aminothiazol-4-yl)-(Z)-pent-2-enamido]-3-[(S)-tetrahydrofuran-2-yl]ceph-3-em-4-carboxylate] |  | 1 |  |  | 16
Nc1nc(/C(=N/OCC(=O)O)C(=O)N[C@@H]2C(=O)N3C(C(=O)O)=C(C4CCCO4)CS[C@H]23)cs1 (stereo partly drawn) [Example 21, (6R,7R)-7-[2-(2-aminothiazol-4-yl)-2-(Z)-carboxymethoxy-iminoacetamido]-3-[(RS)-tetrahydrofuran-2-yl]-ceph-3-em-4-carboxylic acid, disodium salt] |  | 8 |  |  | 0.25
N[C@@H](C(=O)N[C@@H]1C(=O)N2C(C(=O)[O-])=C([C@@H]3CCCO3)CS[C@H]12)c1ccc(O)cc1.[Na+] [Example 22, Sodium (6R,7R)-7-[(R)-2-Amino-2-(4-hydroxyphenyl)acetamido]-3-[(S)-tetrahydrofuran-2-yl]ceph-3-em-4-carboxylate] | 8 | 0.25 |  |  | 
CO/N=C(\C(=O)N[C@@H]1C(=O)N2C(C(=O)O)=C([C@@H]3CCCO3)CS[C@H]12)c1ccco1 [Example 28, Sodium (6R,7R)-7-[2-(furan-2-yl)-2-(Z)-methoxyimino-acetamido]-3-[(S)-tetrahydrofuran-2-yl]ceph-3-em-4-carboxylate] |  | 0.5 |  |  | > 32
sodium 7- [2- (2-aminothiazol-4-yl)-2- (Z)-methoxyimino-acetamido]-3- (tetrahydrofuran-2-yl) -1-carba-1-dethiaceph-3-em-4-carboxylate [Example 24] |  |  | 0.12 | 1.00 | 
